Experimental data taken from PubChem BioAssay (NCI).
Where “and” joins values, the source holds several entries; their conditions need not be identical. Equal entries are not always repeated.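 Each compound was tested at five concentrations against cells in 96-well plates for 48 hours. GI50 = concentration required for 50% inhibition of growth. The concentration for full growth arrest is given as TGI.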

Columns and labels:
Assay in all cases: DTP human tumour cell line panel, 48 h
SF-295 CNS = test system: SF-295 CNS
A549 NSCLC = test system: A549 NSCLC
SW-620 colon = test system: SW-620 colon
TK-10 renal = test system: TK-10 renal
CAKI-1 renal = test system: CAKI-1 renal
NCI-H522 lung = test system: NCI-H522 lung
BT-549 breast = test system: BT-549 breast
HOP-92 NSCLC = test system: HOP-92 NSCLC
HCC-2998 colon = test system: HCC-2998 colon
COLO 205 colon = test system: COLO 205 colon

Row | SMILES | GI50 (SF-295 CNS) [µM] | TGI (SF-295 CNS) [µM] | GI50 (A549 NSCLC) [µM] | TGI (A549 NSCLC) [µM] | GI50 (SW-620 colon) [µM] | TGI (SW-620 colon) [µM] | GI50 (TK-10 renal) | TGI (TK-10 renal) [µM] | GI50 (CAKI-1 renal) [µM] | TGI (CAKI-1 renal) [µM] | GI50 (NCI-H522 lung) | TGI (NCI-H522 lung) [µM] | GI50 (BT-549 breast) [µM] | TGI (BT-549 breast) [µM] | GI50 (HOP-92 NSCLC) [µM] | TGI (HOP-92 NSCLC) [µM] | GI50 (HCC-2998 colon) [µM] | TGI (HCC-2998 colon) [µM] | GI50 (COLO 205 colon) [µM] | TGI (COLO 205 colon) [µM]
1 | COc1ccc2c(c1)C(=O)/C(=C/c1ncc([N+](=O)[O-])n1C)O2 | 1.5 | 3.88 | 2.18 | 6.28 | 0.0843 | 0.426 | 1.38 µM | 13.8 | 0.23 | 0.617 | 0.192 µM | 0.449 | 0.618 | 1.99 | 1.23 | 4.51 | 1.54 | 4.59 | 1.07 | 3.9
2 | O=c1[nH]cnc2[nH]ncc12 | 349 | > 5000 | 1940 | > 5000 | 356 | > 5000 | > 94.6 µM and 258 µM | > 5000 | 97.2 | > 5000 | > 84.4 µM and 272 µM | > 5000 | 578 | > 5000 | 163 | > 3250 | 319 | > 5000 | 440 | > 5000
3 | COc1cc(-c2nc3sc4c(c3c(=O)[nH]2)CCCCCC4)cc(OC)c1OC | 0.692 | 6.53 | 1.95 | > 33.2 | 1.5 | > 33.2 | 13.8 µM | > 33.2 | 1.23 | > 33.2 | 0.887 µM | 9.46 | 1.26 | 19 | 0.887 | 9.45 | 2.41 | > 33.2 | 1.16 | 10.3
4 | COc1cc(/C=C2\CN(C)C/C(=C\c3cc(CN4CCCCC4)c(O)c(OC)c3)C2=O)cc(CN2CCCCC2)c1O | 4.52 | 17.1 | 3.76 | 16.1 | 3.27 | 12.6 |  |  | 4.62 | 17.5 | 2.68 µM | 11.9 | 4.61 | 16.3 | 2.55 | 9.21 | 2.61 | 12 | 1.96 | 3.74
5 | COc1ccc(/C=C/C(=O)Oc2cc(O)cc(O)c2)cc1 |  | 52.4 |  | > 100 |  | > 100 |  | > 100 |  | 31 |  | > 100 |  | > 100 |  | > 100 |  | > 100 |  | > 100
6 | C/C(=N\N=C(/[Se])N1CC2CCC(CC2)C1)c1ccccn1 |  | 2.24 |  | 3.03 |  | 0.608 |  | 3.7 |  | 1.95 |  | 0.615 |  | 1.63 |  | 1.18 |  | 1.5 |  | 0.063
7 | O=C(N/N=C/c1ccc([N+](=O)[O-])cc1)c1ccc2nc(-c3ccc(Cl)cc3)[nH]c2c1 | 3.4 | 13.1 | 3.98 | 24.1 | 3.44 | 10.8 | 8.99 µM | 42.3 | 3.49 | 16.1 | 3.05 µM | 11.7 | 2.84 | 9.71 | 0.985 | 7.52 | 1.48 | 4.81 |  | 
8 | CC(C)NC(=O)OCc1c(COC(=O)NC(C)C)c(-c2ccc(Cl)cc2)n2c1CCC2 | 1.58 | 10.6 | 8.12 | 33.5 | 3.35 | 19.2 | 1.98 µM | 7.97 | 0.534 | 3.83 | 1.77 µM | 5.66 | 2.4 | 15.1 | 1.41 | 5.09 | 6.77 | 20.4 | 4.26 | 17.1
9 | C=C(c1ccc(C(=O)N(C)c2ccccc2N)cc1)C(C)N1C(=O)[C@H]2CCCN2C(=O)c2ccccc21 (stereo partly specified) | > 100 | > 100 | 68.8 | > 100 | 38.1 | > 100 | 45.5 µM | > 100 | 32.8 | > 100 | 17.7 µM | > 100 | > 100 | > 100 | 37.2 | > 100 | 23.6 | > 100 | 24 | > 100
10 | O=C(O)c1cc2cc(OCc3ccccc3)c(OCc3ccccc3)cc2[nH]1 | 17.6 | 40.1 |  |  | 21.8 | 53.8 | 24 µM | 70.6 | 20.7 | 51.3 | 24 µM | 62.2 | 18.5 | 35.6 |  |  | 18.7 | 34.7 | 19.9 | 36.1
11 | NC1=NC(c2ccc(Cl)cc2)C2=C(N1)/C(=C/c1ccc(Cl)cc1)CCC2 (stereo unspecified) | 5.71 | 25.8 | 7.79 | 35 | 3.24 | 12.4 | 27.4 µM | 86.8 | 13.6 | > 96.7 | 15.7 µM | 36.9 | 2.74 | 10.7 | 14.2 | 40.5 | 2.11 | 4.27 | 6.17 | 19.9
12 | C=C1C(=O)O[C@H]2[C@H]1CC/C(COC(=O)NCCc1c[nH]c3ccc(OC)cc13)=C\CC[C@@]1(C)O[C@@H]21 | 10.3 | 22.2 | 4.58 | 18.4 | 1.94 | 5.27 | 1.61 µM | 3.11 | 1.49 | 3.32 | 1.18 µM | 2.75 | 1.4 | 3.13 | 1.19 | 2.87 | 2.34 | 5.64 | 1.3 | 2.78
13 | C=C1C(=O)O[C@H]2[C@H]1CC/C(COC(=O)CSCC(=O)OC/C1=C/CC[C@@]3(C)O[C@H]3[C@H]3OC(=O)C(=C)[C@@H]3CC1)=C\CC[C@@]1(C)O[C@@H]21 | 10.2 | 26.2 | 5 | 18.2 | 1.02 | 2.44 | 1.69 µM | 3.27 | 1.57 | 3 | 1.08 µM | 2.49 | 1.42 | 2.9 | 1.43 | 3.6 | 2.12 | 4.56 | 0.887 | 2.44
14 | CN1CCN(Cc2ccc(NC(=O)c3ccc(C#Cc4c(N)ncc5ccc(F)cc45)cc3)cc2C(F)(F)F)CC1 | 1.04 | 2.04 | 1.05 | 2.19 | 0.972 | 1.87 | 0.977 µM | 1.79 | 1.97 | 7.55 | 0.86 µM | 1.59 | 3.19 | 9.68 | 0.705 | 1.45 | 0.87 | 1.62 | 0.901 | 1.64
15 | O=C(Nc1ccccc1O)c1ccc(Oc2cccc(C(=O)Nc3ccccc3O)c2)cc1 | 2.88 | 9.85 | 2.91 | 16.6 | 3.42 | 12.7 | 7.64 µM | 30.2 | 1.91 | 8.86 | 1.07 µM | 4.73 | 2.53 | 27 | 1.57 | 6.07 | 3.62 | 11.9 | 15.7 | 29.9
16 | CO[C@@H]1CC(=O)C2(CC(=O)O[C@@H]2/C=C(\C)CCC=C(C)C)C[C@@H]1O (stereo partly specified) | 1.43 | > 11.7 | 1.65 | > 12.2 | 0.754 | > 50 | 1.26 µM | 3.35 | 0.87 | 2.74 | 1.82 µM | > 50 | 0.492 | 2.34 | 0.84 | 2.97 | 0.214 | 0.814 | 1.07 | 2.11
17 | COc1ccc(C(=O)c2cc3c(OC)c(OC)c(OC)cc3[nH]2)cc1 | 6.72 | > 100 | 5.77 | > 100 | 5.87 | > 100 | 39.6 µM | > 100 |  |  | 1.55 µM | 6.04 | 8.51 | > 100 | 9.24 | > 100 | 3.8 | > 100 | 3.45 | > 100
18 | O=C(O)c1cc(N=Cc2ccccc2O)cc(C(=O)O)c1 |  | > 100 |  | > 100 |  | > 100 |  | > 100 |  | > 100 |  | > 100 |  | > 100 |  | > 100 |  | > 100 |  | > 100
19 | COc1cccc2c1C(=O)c1c(O)c3c(c(O)c1C2=O)C[C@@](O)(C(=O)CO)C[C@@H]3OC1C[C@H](N)[C@H](O)[C@H](C)O1 (stereo partly specified) | 0.0371 | 0.372 | 0.0355 | > 50 | 0.0312 | 2.97 | 0.177 µM |  |  | 4.18 | 0.0334 µM | 0.317 | 0.059 | 0.241 | 0.0236 | 0.233 | 0.0678 | 0.34 | 0.0904 | 0.446
20 | Cc1ccc2c(c1)NC(=O)CC(c1ccccc1)=N2 |  | > 100 |  | > 100 |  | > 100 |  | > 100 |  | > 100 |  | > 100 |  | > 100 |  | > 100 |  | > 100 |  | 
21 | S=C1Nc2ccc(Cl)cc2C2(c3ccccc3)N3CCN=C3NN12 (stereo unspecified) | 28.6 | > 100 | > 100 | > 100 | 29.2 | 83.5 | 35.1 µM | > 100 | 48.8 | > 100 | 21.7 µM | 48.1 | 30.8 | > 100 | 32.3 | > 100 | 67 | > 100 | 26.3 | > 100
22 | c1cn2cc(-c3ccc4cn[nH]c4c3)nc(Nc3ccc(N4CCOCC4)cc3)c2n1 | 10.6 | 29.5 | 10.4 | 28.8 | 26.7 | > 100 | 17.3 µM | 37.8 | 8.4 | 44.3 | 12.3 µM | 39 | 14.5 | 48.1 | 15.6 | 33.8 | 61.6 | > 100 | 41.3 | > 100
23 | CCN1c2ccccc2C(Cl)(c2ccc(N(C)C)cc2)c2ccccc21 | 21.7 | 73.8 | 4.34 | 24.5 | 2.9 | 12.1 | 11.1 µM | 29.1 | 14.5 | 49.4 |  |  | 12 | 29 | 2.84 | 17 | 10.9 | 23.4 | 2.31 | 7.73
24 | c1ccc(-c2nc(-c3ccccc3)c(-c3ccccc3)[nH]2)cc1 |  | > 100 |  | > 100 |  | > 100 |  | > 100 |  | > 100 |  | > 100 |  | > 100 |  | > 100 |  | > 100 |  | > 100
25 | O=C(Cc1cccc(OC(F)(F)F)c1)Nc1ccc(CCCCc2nnc(NC(=O)Cc3ccccn3)s2)nn1 | 11.5 | 31.4 |  |  | 40.4 | > 100 | 11.7 µM | 24.5 | 4.81 | > 100 | 12.2 µM | 40.1 | 27.9 | > 100 | 6.19 | 25.9 | 52.4 | > 100 | 23.8 | > 100
26 | COc1ccccc1C#Cc1ccccc1C#CCCCCCC#Cc1ccccc1C#Cc1ccccc1OC | > 100 | > 100 | > 100 | > 100 | > 100 | > 100 | > 100 µM | > 100 | 41.2 | > 100 | 40.3 µM | > 100 | > 100 | > 100 |  |  | 18.8 | 69.7 | 80.1 | > 100
